From publication PMC5841354, “Gomesin peptides prevent proliferation and lead to the cell death of devil facial tumour disease cells” (Cell Death Discovery, 2018)
Where a SMILES comes first, the peptide text is derived from it. Bridges are numbered along the chain shown (N, C = ends). [ ]: non-standard residue; d: D form. pGlu = O=C1CC[C@@H](C(=O)O)N1

Assays:
[1] = system: FIBS cells; assay: MTT cell viability, non-transformed fibroblasts (FIBS); format: cell-based, Tasmanian devil (Sarcophilus harrisii); details: 48 h; for deleterious effects on FIBS viability: 50 µg/mL
Excerpt: (§1) All DFTD (DFTD1, DFTD2, and DFTD4) and fibroblast (FIBS) cell lines were obtained from the Department of Primary Industries, Parks, Water, and Environment, State Government of Tasmania (DPIPWE) and were established as part of management plan and adhere to a standard operating practice. The DFTD1 cell line with catalogue number 3287 is derived from the tumour from a female devil (tag number: 06/2887) collected at St Marys, Eastern Tasmania in 2006. DFTD2 cell line with catalogue number 8961 was developed from a tumour from a male devil (tag number: 12/0625) collected at Kempton, Northern Tasmania in 2012. The DFTD4 cell line with catalogue number 4099 was developed from the tumour of a male devil (tag number: 07/0192) that was collected at Freycinet, east coast of Tasmania in 2007 and Fibroblasts cells (FIBS) with catalogue number 497 were obtained from a healthy devil male pup (tag number: 05/0962) held at Mount Pleasant, Southeastern of Tasmania in 2005.
(§2) Devil Facial Tumor cancer cell lines, and the control Tasmanian Devil fibroblast (FIBS) healthy cell line were maintained in a humidified incubator at 35 °C and 5% CO2. The DFTD cell lines were cultured in RPMI-1640 medium supplemented with 10% FCS, and 2 mM Glutamax. The FIBS was grown in GIBCO AmnioMAX-C100 Basal Medium liquid, containing AmnioMAX-C100 supplement. Penicillin/streptomycin (PS) (100 U/ml each) was added to both media. The cells were passaged at ~90% confluency. Functional studies were performed with passages up to 20. All cell lines were mycoplasma free.
(§3) Cell viability as an indicator of the number of viable and proliferative cells was measured by MTT according to the protocol of the manufacturer (Sigma-Aldrich, Australia). In brief, 8000 DFTD and 5000 FIBS cells/well were seeded in a 96-flat adherent microtiter well plate for 24 h to allow cell adhesion. Gomesin peptides and/or analogues were then added to the plates to measure MTT reduction. Plates were measured after 48 h at 540 nm absorbance in a microplate reader (BIOTEK PowerWave XS, USA). 0.1% SDS was used as a positive control (100% toxicity). A row of untreated cells was used to define 100% viability and blank wells containing only media were used to extract background. The concentration of gomesin peptides causing 50% inhibition (EC50) in DFTD and FIBS cells was determined using GraphPad Prism Software (Graphpad Inc, USA).

[2] = system: DFTD4 cells; assay: MTT cell viability, DFTD4 cells; format: cell-based, Tasmanian devil (Sarcophilus harrisii); details: 48 h; for anti-proliferative / cytotoxic activity compared with AgGom: DFTD cell lines (DFTD1, DFTD2, DFTD4); for cell viability / anti-proliferative activity in DFTD4 cells: 50 µg/mL
Excerpt: as §1, §2, §3

[3] = system: DFTD; details: human chemotherapeutic agents in Tasmanian devils; cited from earlier work
Excerpt: With no treatment available for DFTD, scientists maintain captive, disease-free breeding populations that are released into the wild. Major research efforts are focused on understanding the molecular mechanisms of DFTD and why tumour cells fail to stimulate an immune response in the Tasmanian Devil, including the dramatic downregulation of the expression of Major Histocompatibility Complex (MHC) Class I genes[5]–[9]. Previous trials to treat DFTD using human chemotherapeutic agents, such as vincristine, doxorubicin, and carboplatin have proven to be unsuccessful[10],[11]. In this study, we pos ...

[4] = system: DFTD4 cells; assay: Cell cycle analysis (PI, flow cytometry); format: cell-based, Tasmanian devil (Sarcophilus harrisii); details: 50 μg/mL, 24 h, mean ± SEM, three independent experiments
Experimental: DFTD4 cells were synchronised by removing serum from the medium for ~24 h. Cells were then transferred into medium containing serum and treated with AgGom or HiGom at 50 µg/mL for 24 h. Cells were detached mechanically, washed with PBS and fixed with 70% ethanol for ~1 h at 4 °C. Ethanol was removed by centrifugation (453 g for 5 min) and cells were washed with PBS. Cells were treated with 5 µL of 10 µg/mL ribonuclease A to remove RNA contamination and further incubated for 1 h at 37 °C to allow release of low-molecular weight DNA. Cell pellets were stained with 10 µL of propidium iodide (PI) (1 mg/ml) and analysed at a maximum emission of 605 nm using a LSR Fortessa 5 analyser (BD Biosciences, San Diego, CA, US). Approximately 10,000 events were recorded and data were analysed using FlowJo software v10.06 (FlowJo, US).

[5] = system: DFTD4 cells; assay: Reactive oxygen species (Carboxy-H2DCFDA, flow cytometry); format: cell-based, Tasmanian devil (Sarcophilus harrisii); details: 50 μg/mL, 24 h, vs. untreated
Experimental: An Amplex Red Hydrogen Peroxidase assay kit (Invitrogen, Australia) was used to measure reactive oxygen species (ROS) generation in DFTD4 cells. A fluorescence probe that detects intracellular H2O2, Carboxy-H2DCFDA, was added 30 min prior to collecting cells to measure ROS production in DFTD4 cells that were previously treated with gomesin peptides at 50 µg/mL for 24 h. Fluorescent cells were washed twice with PBS prior to analysis on a FACSCalibur flow cytometer (BD Biosciences, USA) using excitation and emission wavelengths of 492 nm and 517 nm, respectively. Approximately 10,000 events were recorded per sample and the readout was analysed using FlowJo software v10.06 (FlowJo, USA).

[6] = system: DFTD4 cells; assay: Annexin V-FITC/PI apoptosis and necrosis; format: cell-based, Tasmanian devil (Sarcophilus harrisii); details: 24 h
Experimental: Apoptosis in DFTD4 cells treated with AgGom or HiGom was measured using an Annexin V-FITC Apoptosis detection kit in combination with a Canto II high-throughput fluorescence-activated cell sorter (BD Biosciences, USA). Briefly, cells were seeded at a density of 100,000 cells/well in a round-bottom 96-well plate and treated with 50 µg/mL AgGom or HiGom for 24 h. The cells were collected mechanically, washed twice with PBS and once with wash buffer provided by the manufacturer. Cells were stained simultaneously with FITC-labelled annexin V and PI for 30 min in the dark and at room temperature before being analysed.

[7] = system: DFTD4 cells; assay: qRT-PCR of cell cycle check-point, pro-survival and apoptosis genes; format: cell-based, Tasmanian devil (Sarcophilus harrisii); details: 50 μg/mL, vs. vehicle
Experimental: Total RNA was extracted from both untreated (control) and gomesin-treated DFTD4 cells using an RNeasy kit (Qiagen, Australia) and 1 µg was reverse-transcribed into cDNA using SensiFast (Bioline, UK). Quantitative real time-PCR (qRT-PCR) to quantitate mRNA expression was performed on a LightCycler Instrument (Roche Molecular Biochemicals, Australia) with Tasmanian devil 18S used as the reference (housekeeper) gene. All primers are listed in Supplementary.

[8] = system: DFTD4 cells; assay: Mitochondrial membrane potential (Rhodamine 123); format: cell-based, Tasmanian devil (Sarcophilus harrisii); details: 50 µg/mL, 24 h, vs. vehicle
Experimental: We measured the mitochondrial membrane potential (MMP) using Rhodamine 123 (Rhod-123) (Sigma-Aldrich, Australia), a cationic dye that is localised in mitochondria. Loss-of-MMP results in loss-of-Rhod-123 fluorescence. Approximately 1 × 10^6 DFTD4 cells treated with AgGom or HiGom at 50 µg/mL for 24 h were collected and resuspended in 0.1 ml of culture medium, stained with 10 µg/mL Rhod-123 for 30 min, and then washed with PBS. The intracellular concentration of Rho123 was determined immediately after by flow cytometry (BD Biosciences, USA) using an excitation wavelength of 488 nm. The data were analysed using FlowJo v10.06 (FlowJo, USA).

Compound: CC[C@H](C)[C@@H]1NC(=O)[C@H](CCCNC(=N)N)NC(=O)[C@H](CCCNC(=N)N)NC(=O)[C@@H](NC(=O)[C@@H]2CCC(=O)N2)CSSC[C@@H](C(=O)N[C@@H](CCCNC(=N)N)C(=O)NCC(=O)N[C@@H](CCCNC(=N)N)C(N)=O)NC(=O)[C@H](Cc2ccc(O)cc2)NC(=O)[C@H]([C@@H](C)O)NC(=O)[C@H](Cc2ccccc2)NC(=O)[C@@H]2CSSC[C@H](NC1=O)C(=O)NCC(=O)N[C@@H](CCCNC(=N)N)C(=O)N[C@@H](CCCNC(=N)N)C(=O)N[C@@H](CCCNC(=N)N)C(=O)N2 [SpGom] ([pGlu]CRRICGRRRCFTYCRGR-NH2; disulfide 2-15, 6-11)
- deleterious effects on FIBS viability [1]: minimal deleterious effects
- anti-proliferative / cytotoxic activity compared with AgGom [2]: higher anti-proliferative activity than AgGom

Compound: COc1cccc2c1C(=O)c1c(O)c3c(c(O)c1C2=O)C[C@@](O)(C(=O)CO)C[C@@H]3O[C@H]1C[C@H](N)[C@H](O)[C@H](C)O1 [doxorubicin]
- outcome of trials to treat DFTD [3]: unsuccessful

Compound: ZCRRACYKQRCVTYCRGR-NH2 (bicyclic or more) [AgGomL5A, AgGom analogue L5A]
- cell viability / anti-proliferative activity in DFTD4 cells [2]: eradicated the anti-proliferative activity

Compound: CC(C)C[C@@H]1NC(=O)[C@H](CCCNC(=N)N)NC(=O)[C@H](CCCNC(=N)N)NC(=O)[C@@H](NC(=O)[C@@H]2CCC(=O)N2)CSSC[C@@H](C(=O)N[C@@H](CCCNC(=N)N)C(=O)NCC(=O)N[C@@H](CCCNC(=N)N)C(N)=O)NC(=O)[C@H](Cc2ccc(O)cc2)NC(=O)[C@H]([C@@H](C)O)NC(=O)[C@H](C(C)C)NC(=O)[C@@H]2CSSC[C@H](NC1=O)C(=O)N[C@@H](Cc1ccc(O)cc1)C(=O)N[C@@H](CCCNC(=N)N)C(=O)N[C@@H](CC(N)=O)C(=O)N[C@@H](CCCNC(=N)N)C(=O)N2 [HiGom] ([pGlu]CRRLCYRNRCVTYCRGR-NH2; disulfide 2-15, 6-11)
- deleterious effects on FIBS viability [1]: not statistically significant
- effects on FIBS viability ([1]; 0.5 to 25 µg/mL): negligible effects
- G0/G1 [4]: 47.2 ± 0.66
- G2/M [4]: 13.3 ± 0.7
- S-phase [4]: 13.7 ± 1.9
- cell viability / anti-proliferative activity in DFTD4 cells [2]: dramatically reduced the cell viability
- anti-proliferative / cytotoxic activity compared with AgGom [2]: more cytotoxic than AgGom
- ROS [5]: significant increase in ROS
- early or late apoptotic cell ratio ([6]; 50 µg/mL): not altered
- necrosis of DFTD cells compared to untreated cells ([6]; 50 µg/mL): significantly increased necrosis
- expression of BCL2 [7]: enhanced
- expression of p53 [7]: enhanced
- p27 expression [7]: elevated
- MMP [8]: significant decrease in MMP

Compound: CC(C)C[C@@H]1NC(=O)[C@H](CCCNC(=N)N)NC(=O)[C@H](CCCNC(=N)N)NC(=O)[C@@H](NC(=O)[C@@H]2CCC(=O)N2)CSSC[C@@H](C(=O)N[C@@H](CCCNC(=N)N)C(=O)NCC(=O)N[C@@H](CCCNC(=N)N)C(N)=O)NC(=O)[C@H](Cc2ccc(O)cc2)NC(=O)[C@H]([C@@H](C)O)NC(=O)[C@H](C(C)C)NC(=O)[C@@H]2CSSC[C@H](NC1=O)C(=O)N[C@@H](Cc1ccc(O)cc1)C(=O)N[C@@H](CCCCN)C(=O)N[C@@H](CC(N)=O)C(=O)N[C@@H](CCCNC(=N)N)C(=O)N2 [AgGomKN] ([pGlu]CRRLCYKNRCVTYCRGR-NH2; disulfide 2-15, 6-11)
- deleterious effects on FIBS viability [1]: minimal deleterious effects
- anti-proliferative / cytotoxic activity compared with AgGom [2]: higher anti-proliferative activity than AgGom

Compound: CC(C)C[C@@H]1NC(=O)[C@H](CCCNC(=N)N)NC(=O)[C@H](CCCNC(=N)N)NC(=O)[C@@H](NC(=O)[C@@H]2CCC(=O)N2)CSSC[C@@H](C(=O)N[C@@H](CCCNC(=N)N)C(=O)NCC(=O)N[C@@H](CCCNC(=N)N)C(N)=O)NC(=O)[C@H](Cc2ccc(O)cc2)NC(=O)[C@H]([C@@H](C)O)NC(=O)[C@H](C(C)C)NC(=O)[C@@H]2CSSC[C@H](NC1=O)C(=O)N[C@@H](Cc1ccc(O)cc1)C(=O)N[C@@H](CCCCN)C(=O)N[C@@H](CCCNC(=N)N)C(=O)N[C@@H](CCCNC(=N)N)C(=O)N2 [AgGomKR] ([pGlu]CRRLCYKRRCVTYCRGR-NH2; disulfide 2-15, 6-11)
- deleterious effects on FIBS viability [1]: minimal deleterious effects
- anti-proliferative / cytotoxic activity compared with AgGom [2]: higher anti-proliferative activity than AgGom

Compound: CC[C@]1(O)C[C@H]2CN(CCc3c([nH]c4ccccc34)[C@@](C(=O)OC)(c3cc4c(cc3OC)N(C=O)[C@H]3[C@@](O)(C(=O)OC)[C@H](OC(C)=O)[C@]5(CC)C=CCN6CC[C@]43[C@@H]65)C2)C1 [vincristine]
- outcome of trials to treat DFTD [3]: unsuccessful

Compound: ZCARLCYKQRCVTYCRGR-NH2 (bicyclic or more) [AgGomR3A, AgGom analogue R3A]
- cell viability / anti-proliferative activity in DFTD4 cells [2]: eradicated the anti-proliferative activity

Compound: CC[C@@]1(O)C(=O)OCc2c1cc1n(c2=O)Cc2cc3ccccc3nc2-1 [camptothecin, reference compound]
- late apoptosis ([6]; 10 µM, positive control): > 30%

Compound: N.N.O=C([O-])C1(C(=O)[O-])CCC1.[Pt+2] [carboplatin]
- outcome of trials to treat DFTD [3]: unsuccessful

Compound: ZCRRLCYKQRCATYCRGR-NH2 (bicyclic or more) [AgGomV12A, AgGom analogue V12A]
- cell viability / anti-proliferative activity in DFTD4 cells [2]: eradicated the anti-proliferative activity
